# Data reported in patent US9682033B2, “Methods of treating postherpetic neuralgia with a topical formulation of a spiro-oxindole compound” (Teva Pharmaceuticals International GmbH, priority 2015, dated 2017).
# Key:
# [1] = target: CYP450 2C19 (CYP2C19) (Homo sapiens, UniProt P33261); test: Reaction phenotyping with recombinant human CYP450 enzymes: CYP2C19; assay type: in vitro ADME
# [2] = tested on: CYP2C19; test: clinical; settings: human, in vivo
# Description: (§1) This was a single center, open-label, 1-sequence drug-drug interaction study in 32 healthy adult male and female subjects. The study consisted of a 28-day screening period, a 10-day inpatient treatment period, and a follow-up visit. Subjects meeting the study inclusion/exclusion requirements were admitted to the clinical research unit on day −1 and were confined until day 10.
# (§2) Blood samples were collected for the assessment of the pharmacokinetics of midazolam and omeprazole.
# (§3) The primary pharmacokinetic endpoints were the geometric mean ratios (90% confidence intervals [CIs]) for Cmax, AUC0-t, and AUC0-inf for midazolam and omeprazole on day 9 versus day 1.
# (§4) Blood samples were collected for the assessment of the pharmacokinetics of the major metabolites of midazolam (1-OH-midazolam) and omeprazole (5-OH-omeprazole), and for the spiro-oxindole compound. Further secondary pharmacokinetic variables included Cmax, tmax, AUC0-t, AUC0-inf, CL/F, λz, t1/2, and % AUCext for 1-OH-midazolam and 5-OH-omeprazole, on days 1 and 9, and Cmax, morning predose concentrations (Ctrough), average plasma concentration over the dosing interval (Cave), and area under the plasma concentration-time curve over the dosing interval (AUC0-τ) were presented for the spiro-oxindole compound.
# (§5) Descriptive statistics (n, mean, geometric mean, standard deviation [SD], % CV, median, minimum, and maximum) were used to summarize plasma midazolam, omeprazole and their metabolites, and the spiro-oxindole compound concentration for all subjects overall at each scheduled time point. Descriptive statistics (as noted above) were also used to summarize plasma omeprazole, 5-OH-omeprazole, and the spiro-oxindole compound concentration for all subjects overall by CYP2C19 genotype at each scheduled time point. Pharmacokinetic parameters were derived by noncompartmental analysis. Descriptive statistics (as noted above) were used to summarize the calculated pharmacokinetic parameters for midazolam, omeprazole and their metabolites, and the spiro-oxindole compound by treatment for all subjects. Descriptive statistics (as noted above) were also used to summarize the calculated pharmacokinetic parameters for omeprazole, 5-OH-omeprazole, and the spiro-oxindole compound by treatment and CYP2C19 genotype. Plots of geometric mean and individual plasma concentrations and of select pharmacokinetic parameters for midazolam, omeprazole and their metabolites and the spiro-oxindole compound at select sampling times were provided. Additionally, plots of individual select pharmacokinetic parameters by CYP2C19 phenotype for omeprazole at select time points were provided.
# [3] = Joint penetration and tissue distribution study in domestic pig, multiple-dose topical administration (Biological Example 2); assay type: in vivo
# Method: This study was conducted to evaluate the joint penetration, systemic plasma exposure and tissue distribution of the spiro-oxindole compound in domestic pigs following topical administration of a pharmaceutical composition utilized in the methods of the invention. Fifteen female pigs were used in this study with three pigs in each group. Beginning on Day 1, a pharmaceutical composition of the invention was topically applied to the left radiocarpal joint (carpus) and tibiotarsal joint (hock) twice daily (bid) for 17 days (34 applications) for Groups 1-4 and once daily (qd) for 17 days (17 applications) for Group 5. Pre-dose blood samples (prior to morning dosing) was collected on Days 2, 7, 10, 14 and 17. A full pharmacokinetic sampling was performed on Day 17 (post am dosing) at the following time points: 1, 2, 4, 8 and 12 hr. On the day of necropsy, Day 18, blood was collected prior to euthanasia, each pig was humanely euthanized and dorsal skin and muscle, liver, kidney, heart, lung, brain, intestine, fat, ovaries, urinary bladder, sciatic nerve, and skin, muscle, synovial membrane, and synovial fluid from all 4 joints (2 treated, left carpus and hock, and 2 untreated, right carpus and hock) was collected.
# Doses were calculated by measuring the joint circumference and joint width (to include ˜2 cm above and below the joint) to calculate the total surface area for each individual dose. Group 1 received a 2% pharmaceutical composition of the invention and the dose volume for Group 1 was calculated using the total surface area and the designated dose volume of 3 μL/cm^2. The total dose volume was then converted from μL to mL to estimate the dose weight in grams, based on the composition density of 1 g/cm^3. Following is an example (not actual measurements) of calculating the dose:
# For Groups 2-5, the dose volume was calculated using the total surface area and the designated dose volume of 3 μL/cm^2 (Groups 2, 3 and 5) or 1 μL/cm^2 (Group 4). […]
# [4] = target: CYP3A4 (Homo sapiens, UniProt P08684); test: Drug-drug interaction study in healthy subjects: midazolam (CYP3A4 substrate) pharmacokinetics (Biological Example 5); settings: human, in vivo
# Sequence of CYP3A4 (P08684 whole entry): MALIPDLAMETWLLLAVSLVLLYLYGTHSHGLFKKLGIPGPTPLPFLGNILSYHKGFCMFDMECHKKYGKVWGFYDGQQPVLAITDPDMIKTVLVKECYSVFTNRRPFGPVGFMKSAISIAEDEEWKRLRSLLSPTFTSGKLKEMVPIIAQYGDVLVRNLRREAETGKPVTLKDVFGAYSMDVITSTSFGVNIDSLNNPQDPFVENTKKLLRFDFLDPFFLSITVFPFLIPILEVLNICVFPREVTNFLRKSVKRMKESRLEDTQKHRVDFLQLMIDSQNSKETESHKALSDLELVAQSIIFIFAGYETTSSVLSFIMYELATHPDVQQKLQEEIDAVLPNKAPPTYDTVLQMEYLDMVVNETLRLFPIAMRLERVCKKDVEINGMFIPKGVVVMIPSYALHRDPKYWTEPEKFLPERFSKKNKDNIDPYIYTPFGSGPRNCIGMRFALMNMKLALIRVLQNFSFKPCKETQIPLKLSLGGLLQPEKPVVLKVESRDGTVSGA
# Description: as §1, §2, §3, §4, §5
# [5] = target: CYP450 2C9 (Homo sapiens, UniProt P11712); test: Reaction phenotyping with recombinant human CYP450 enzymes: CYP2C9; assay type: in vitro ADME; settings: recombinant human CYP450 2C9
# Sequence of CYP450 2C9 (P11712 whole entry): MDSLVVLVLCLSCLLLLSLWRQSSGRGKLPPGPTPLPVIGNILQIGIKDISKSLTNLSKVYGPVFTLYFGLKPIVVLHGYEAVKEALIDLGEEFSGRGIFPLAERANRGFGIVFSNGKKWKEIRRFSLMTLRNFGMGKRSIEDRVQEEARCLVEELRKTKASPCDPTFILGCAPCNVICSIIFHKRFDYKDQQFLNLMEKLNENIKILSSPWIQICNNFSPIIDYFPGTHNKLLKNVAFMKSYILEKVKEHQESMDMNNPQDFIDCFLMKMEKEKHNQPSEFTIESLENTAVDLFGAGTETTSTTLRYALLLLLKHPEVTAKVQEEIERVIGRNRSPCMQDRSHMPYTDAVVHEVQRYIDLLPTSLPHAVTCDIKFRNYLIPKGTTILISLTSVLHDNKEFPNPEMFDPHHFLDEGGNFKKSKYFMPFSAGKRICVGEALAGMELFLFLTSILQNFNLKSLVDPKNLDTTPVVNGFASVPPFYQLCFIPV
# [6] = tested on: human hepatocytes; test: In vitro metabolic stability in hepatocytes (human); assay type: in vitro ADME; settings: ^14C-spiro-oxindole compound
# Description: A total of 8 metabolites were identified in samples (in vitro and in vivo) from rats, dogs, and humans. All metabolites found in humans were also found in the Good Laboratory Practice (GLP) toxicology species, the rat. Following oral administration of spiro-oxindole compound to humans, spiro-oxindole compound and 3 of its metabolites (M1, M5, and M6) were measurable. A similar metabolic profile was observed following topical administration to humans, albeit at much lower plasma concentrations, except metabolite M1 was not detected following human topical administration.
# [7] = tested on: cultured human lymphocytes; test: In vitro chromosome aberration assay in cultured human lymphocytes (GLP); assay type: cell-based
# Description: The spiro-oxindole compound was not genotoxic in the standard battery of genotoxicity tests (GLP), including a bacterial reverse mutation assay, an in vitro chromosome aberration assay in cultured human lymphocytes, and an in vivo rat bone marrow micronucleus test.
# [8] = domestic pig, topical administration to a joint
# Sequence of CYP450 2C19 (CYP2C19) (P33261 whole entry): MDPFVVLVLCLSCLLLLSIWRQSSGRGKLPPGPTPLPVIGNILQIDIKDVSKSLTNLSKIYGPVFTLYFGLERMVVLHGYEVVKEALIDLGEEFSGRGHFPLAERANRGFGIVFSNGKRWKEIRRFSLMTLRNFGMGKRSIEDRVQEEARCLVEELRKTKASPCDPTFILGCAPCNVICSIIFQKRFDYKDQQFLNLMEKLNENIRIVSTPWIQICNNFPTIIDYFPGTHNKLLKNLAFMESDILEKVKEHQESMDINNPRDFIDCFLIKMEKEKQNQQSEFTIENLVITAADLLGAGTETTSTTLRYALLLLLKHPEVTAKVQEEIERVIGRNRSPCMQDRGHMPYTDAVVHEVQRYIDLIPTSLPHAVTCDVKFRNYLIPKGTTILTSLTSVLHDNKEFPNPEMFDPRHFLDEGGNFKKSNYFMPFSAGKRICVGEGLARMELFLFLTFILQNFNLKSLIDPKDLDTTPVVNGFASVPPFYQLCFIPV
structure (smiles),measurement,setting,value
"O=C1N(Cc2ccc(C(F)(F)F)o2)c2ccccc2[C@]12COc1cc3c(cc12)OCO3 [spiro-oxindole compound, (S)-1′-{[5-(trifluoromethyl)furan-2-yl]methyl}spiro[furo[2,3-f][1,3]benzodioxole-7,3′-indol]-2′(1′H)-one]",contribution to spiro-oxindole compound metabolism,[1],major contributors
same,"Geometric LS mean ration (%) (test/reference), omeprazole AUC0-inf",[2]; both,105.751%
same,"Geometric LS mean ration (%) (test/reference), omeprazole AUC0-t",[2]; both,101.553%
same,"Geometric LS mean ration (%) (test/reference), omeprazole Cmax",[2]; both,98.939%
same,effect on systemic exposure to 5-OH-omeprazole (in words),[2]; both,no relevant effect on systemic exposure to 5-OH-omeprazole
same,effect on omeprazole pharmacokinetics (in words),[2],no relevant effect on omeprazole pharmacokinetics
same,concentration in the synovial membrane tissue of the treated joint (in words),[3]; [8],micromolar concentrations
same,plasma concentrations (in words),[3]; [8],nanomolar
same,spiro-oxindole compound concentration in liver tissue,"[3]; pig G2 (#4-6): 4% composition, 3 μL/cm^2 bid topical 17 days, individual animals",0/0
same,effect on midazolam pharmacokinetics (in words),[4],no relevant effect on midazolam pharmacokinetics
same,contribution to spiro-oxindole compound metabolism,[5],limited or no involvement
same,in vitro metabolic stability in hepatocytes,[6],80%
same,genotoxicity,[7],not genotoxic
